Each molecule was assayed on P. falciparum 3D7 growth, pLDH absorbance (assay: blood-stage malaria parasite growth potency – strain 3D7, dose response (AID 2305)).

CCCCOC(=O)c1ccc(Nc2cc(C)nc3ccc(OC)cc23)cc1 and COc1ccc2c(NN=Cc3ccccc3)cc(C)nc2c1 are within 1.5-fold of each other in IC50: 640 nM for the first, 850 nM for the second.

First: CCCOc1ccc(CNCCCCCCNCc2ccc(OCCC)c3ccccc23)c2ccccc12
Second: O=c1cc(NCCCNCc2cc(Cl)cc(Cl)c2OCc2ccc(Cl)cc2)[nH]c2ccccc12
The IC50 of the first is 1.7-fold lower: 410 nM for the first, 690 nM for the second.

Cc1c[nH]c2ccc(/C=C/C(=O)NC3CCC(CCN4CCc5ccc(C#N)cc5CC4)CC3)cc12 (stereo not drawn) and O=C(/C=C/c1ccc(Cl)c(Cl)c1)N1CCC(CCN2CCC(c3c[nH]c4ccccc34)CC2)CC1 are within 1.5-fold of each other in IC50: 830 nM for the first, 600 nM for the second.

Going from CS(=O)(=O)CCN(CCS(C)(=O)=O)Cc1ccc(-c2ccc3ncnc(Nc4ccc(OCc5cccc(F)c5)c(Cl)c4)c3c2)o1 to CN(C)CCNCc1ccc(-c2ccc3c(Nc4ccc(Cl)cc4F)ccnc3c2)o1, the IC50 falls from 1020 nM to 210 nM (4.9-fold).

O=S(=O)(NCCN1CCCC1)c1ccc(-c2ccccc2CNC2Cc3ccccc3C2)cc1 and O=C(N[C@H]1CCN(Cc2ccc(OCCCN3CCCCC3)cc2)C1)c1ccc2ccccc2c1 are within 1.5-fold of each other in IC50: 850 nM for the first, 760 nM for the second.

First: CCc1ccc(CN2CCC(CNC(=O)c3cc(-c4cccc(C(F)(F)F)c4)cs3)C2)cc1 (stereo not drawn)
Second: CCCc1ccc(NC(=O)c2ccc(CN3CCCN(Cc4cccc(O)c4)CC3)cc2)cc1
The IC50 of the first is 1.9-fold higher: 750 nM for the first, 400 nM for the second.

Cc1ccc(C)c(S(=O)(=O)NCC2CCN(Cc3ccc(O)cc3)CC2)c1 and CN(Cc1ccncc1)C(Cc1ccccc1)C1CCN(Cc2ccc(O)c(Cl)c2)CC1 (stereo not drawn) are within 1.5-fold of each other in IC50: 980 nM for the first, 750 nM for the second.

First: Cc1cc(C)cc(-n2c(C)cc(C=C3SC(=Nc4ccc(Cl)cc4)NC3=O)c2C)c1
Second: CCNC[C@H]1CCCN1CCOc1ccc(-n2cnc3cc(-c4ccc(Cl)cc4)sc3c2=O)cc1OC
The IC50 of the first is 12-fold lower: 70 nM for the first, 810 nM for the second. The first is the more potent here.

Going from CCS(=O)(=O)Nc1ccc2[nH]c(O)c(C(=Nc3ccc(CN4CCCCC4)cc3)c3ccccc3)c2c1 to O=c1[nH]c2ccc3[nH]cccc3c2c1C=Nc1ccc(Cn2ccnc2)cc1, the IC50 rises from 60 nM to 660 nM (11-fold). The first is the more potent here.

CN(/N=C/c1ccc(Cl)cc1)c1nc(NCCc2ccc(O)cc2)nc(N2CCNCC2)n1 and Oc1ccc(CCCNc2nc(NCc3cccc4ccccc34)nc(N3CCCNCC3)n2)cc1 are within 1.5-fold of each other in IC50: 1350 nM for the first, 990 nM for the second.

First: COc1ccc2nccc([C@@H](O)CN3CCC(NCC4COc5ccccc5O4)CC3)c2c1 (stereo partly drawn)
Second: COc1ccc2nccc([C@@H](O)CN3CCC(NCc4ccc5cccc(O)c5n4)CC3)c2n1
The IC50 of the first is 3.6-fold lower: 250 nM for the first, 910 nM for the second.

First: c1ccc2[nH]c(-c3ccc(-c4ccc(CN5CCN(CCN6CCOCC6)CC5)cc4)s3)nc2c1
Second: Cc1cccc2[nH]c(-c3ccc(-c4ccc(CN5CCN(CCC#N)CC5)cc4)cc3)nc12
The IC50 of the first is 3.1-fold lower: 280 nM for the first, 860 nM for the second.

O=C(/C=C/c1ccc(Cl)cc1)NCCCCCN1CCC(C(=O)Nc2ccc(Cl)c(Cl)c2)CC1 and Cc1ccc(/C=C/C(=O)NCCCCCN2CCCN(C(=O)Nc3ccc(Cl)c(Cl)c3)CC2)cc1 are within 1.5-fold of each other in IC50: 770 nM for the first, 940 nM for the second.

First: Cc1cccc(-c2cccc3c(NC(=O)N4CCc5cc6nccc(N7CCN8CCC[C@H]8C7)c6cc54)cccc23)n1
Second: Oc1cc(Nc2ccnc3cc(-c4cccc(CN5CCOCC5)c4)ccc23)c(F)cc1Cl
The IC50 of the first is 4.4-fold higher: 920 nM for the first, 210 nM for the second. The second is the more potent here.

First: COc1ccc(CCCCN2C(=O)C(c3ccccc3)(c3ccccc3)N=C2N)cc1
Second: Cc1cc(NC2CCN(Cc3ccccc3)CC2)nc(NCCCCc2ccccc2)n1
The IC50 of the first is 2.3-fold higher: 860 nM for the first, 380 nM for the second. The second is the more potent here.

First: COc1cccc(Nc2nccc(-c3c(-c4cccc(NC(=O)c5c(F)cccc5F)c4)nn4ccccc34)n2)c1
Second: O=C(Nc1cccc(-c2ccc(-c3nc4ccccc4[nH]3)cc2)c1)c1cnn2cccnc12
The IC50 of the first is 5.9-fold lower: 180 nM for the first, 1060 nM for the second. The first is the more potent here.

Compared with CC(=O)Nc1ccc(OCCN(CC(C)(C)C)c2ccc(C#N)c(C(F)(F)F)c2)c(Cl)c1, Cc1cc2c(cc1C(F)(F)F)N(C(=O)Nc1cc(OCCN(C(C)C)C(C)C)cc(C(F)(F)F)c1)CC2 is 1.9-fold lower in IC50: 490 nM for the first, 260 nM for the second. The second is the more potent here.

CCCCC(=O)N(CCOC)Cc1ccc(-c2ccc(CNCCC)cn2)cc1 and CCCOc1ccc(C(=O)Nc2nonc2-c2ccc(OC)c(OC)c2)cc1 are within 1.5-fold of each other in IC50: 730 nM for the first, 990 nM for the second.

COc1cc(-c2ccc(-c3cnc(N)nc3OC)[nH]2)cc(OC)c1OC and COc1cc(C(=O)Nc2cccc(-c3cn4cccc(C)c4n3)c2)cc(OC)c1OC are within 1.5-fold of each other in IC50: 730 nM for the first, 700 nM for the second.

Going from CCCOc1cc(O)c(-c2n[nH]c(C)c2Oc2ccccc2)cc1CC to CCCC(C)Nc1nc(C)cc(N[C@@H](CC(C)C)C(=O)NCCOc2ccccc2)n1 (stereo partly drawn), the IC50 rises from 1070 nM to 1710 nM (1.6-fold).

c1ccc(COc2ccc(Cn3ccc(-c4ccc(-n5ccnc5)cc4)n3)cc2)cc1 (tested in a mixture with another compound) and CCN(CC)CCN(CCCc1ccc(-c2ccc(C(F)(F)F)cc2)cc1)C(=O)Cn1c(CCc2cccc(F)c2F)nc(=O)c2ccccc21 are within 1.5-fold of each other in IC50: 1020 nM for the first, 770 nM for the second.

Cc1cnc(CS(=O)c2nc3ccc(C(F)(F)F)cc3[nH]2)cc1OCc1ccccc1 (stereo not drawn) and O=C(Cc1ccccn1)Nc1cccc(-c2cccc(-c3nc4ccc(C(F)(F)F)cc4[nH]3)c2)c1 are within 1.5-fold of each other in IC50: 740 nM for the first, 610 nM for the second.

First: O=C(Nc1cccc(-c2cccc(-c3nc4ccc(C(F)(F)F)cc4[nH]3)c2)c1)c1cccnc1Cl
Second: CC(CN1CCN(C)CC1)C(=O)Nc1ccc(-c2cccc(-c3nc4ccc(C(F)(F)F)cc4[nH]3)c2)cc1 (stereo not drawn)
The IC50 of the first is 1.6-fold higher: 660 nM for the first, 400 nM for the second. The second is the more potent here.

CN(CCO)Cc1cccc(-c2ccc(NC(=O)c3cccc(C#N)c3)cc2)c1 and CN1CCN(CCCN(Cc2cccc(-c3ccc(CNC4CCCC4)cc3)c2)C(=O)/C=C/c2ccccc2)CC1 are within 1.5-fold of each other in IC50: 800 nM for the first, 750 nM for the second.

Going from CN(C)c1nc(NCc2ccccc2)nc(NN=Cc2cc([N+](=O)[O-])ccc2O)n1 to Cc1cccc(CNc2nc(C)cc(NCCC(=O)Nc3ccccc3)n2)c1, the IC50 rises from 690 nM to 1050 nM (1.5-fold).

Cc1nc(Nc2ccc(F)cc2)nc(N2CCc3cc(O)ccc3C2C)c1C (stereo not drawn) and COc1cc2nc(Nc3ccc(N4CCOCC4)cc3)nc(N)c2cc1OC are within 1.5-fold of each other in IC50: 750 nM for the first, 870 nM for the second.

O=C(CSc1nc(-c2ccccc2Cl)ns1)Nc1cccc(F)c1 and Nc1nc(-c2ccc3c(Nc4ccc(F)c(Cl)c4)ccnc3c2)cs1 are within 1.5-fold of each other in IC50: 1110 nM for the first, 870 nM for the second.

Going from Cc1ccc(C(CC(=O)Nc2nccs2)c2ccc(OC(C)C)cc2)cc1 (stereo not drawn) to CCNc1cc(CC)nc(Nc2ccc(C)cc2)n1, the IC50 rises from 480 nM to 850 nM (1.8-fold). The first is the more potent here.

CC(=O)Nc1sc(C)c(C)c1CN1CCc2ccccc2C1 and CCN1CCN(c2cc(C)c3cc(NC(=O)c4cccc(C(F)(F)F)c4)ccc3n2)CC1 are within 1.5-fold of each other in IC50: 620 nM for the first, 570 nM for the second.

O=C(Nc1ccc(Cl)cc1)N1CCN(C2CCCCC2)CC1 and COc1ccc(CN2CCCC(N3CC4(OC3=O)c3ccccc3-c3ccccc34)C2)c(O)c1 (stereo not drawn) are within 1.5-fold of each other in IC50: 990 nM for the first, 870 nM for the second.

Going from O=C(CC1SC(N2N=C(c3cccs3)CC2c2ccccc2)=NC1=O)Nc1ccccc1F (stereo not drawn) to COc1cccc(OC)c1CN1CCC(N(C)CCCCCCCCCN2CCC(OC(=O)Nc3ccccc3-c3ccccc3)CC2)CC1, the IC50 falls from 1090 nM to 320 nM (3.4-fold). The second is the more potent here.

O=c1cc(NCCCNCc2cccc(C(F)(F)F)c2Cl)[nH]c2ccccc12 and Fc1ccc(CNc2nc(-c3ccc(F)c(C(F)(F)F)c3)n(-c3cccc(C(F)(F)F)c3)n2)cc1 are within 1.5-fold of each other in IC50: 800 nM for the first, 560 nM for the second.

Cc1ccc(C(C#N)c2ccc3c(C(F)(F)F)cc(C(F)(F)F)nc3n2)cc1 (stereo not drawn) and CN(Cc1cnc2nc(N)nc(N)c2n1)c1ccc(C(=O)N[C@H](CCC(=O)OC(C)(C)C)C(=O)N[C@@H](CCC(=O)OC(C)(C)C)C(=O)OC(C)(C)C)cc1 are within 1.5-fold of each other in IC50: 700 nM for the first, 1020 nM for the second.

First: CCNc1cc(C(=O)N[C@@H](Cc2ccc(F)c(F)c2)[C@H](O)CNCc2cccc(OC)c2)cc(N2CCCCS2(=O)=O)c1
Second: CCNc1cc(C(=O)N[C@@H](Cc2ccccc2)[C@H](O)CNC2(CC)CC2)cc(N2CCCCS2(=O)=O)c1
The IC50 of the first is 2.1-fold lower: 750 nM for the first, 1610 nM for the second.

Reference: PubChem BioAssay AID2305 (GlaxoSmithKline (GSK), 2010)
